Laboratory results as given in PMC10786692 (The Journal of Clinical Investigation, 2024).
“And” between values parts separate entries of the source, which are not always exact repeats. Equal values may be shown once.

Columns and labels:
tumor biopsies = test: CIBERSORTx cell-type deconvolution of tumor biopsy RNA-Seq; format: in vivo, human; conditions: individual patients
Protocol: signatures for heatmap construction were used from MSigDB (49) and cell-type-related
transcripts from NanoString annotations and Bindea et al (50). Cell-type deconvolution was
performed using CIBERSORTx (51). […]

[1] = Treatment-related adverse events (CTCAE v4.03), PATRIOT phase I; format: in vivo; conditions: for TRAE Overall events: n: Total
Protocol: For part A (dose escalation; Figure 1, A and B), the starting dose of 20 mg was selected based on animal toxicity studies. Dosing was continuous, and escalation used a modified Fibonacci method. Initial dose escalation was planned in single patient cohorts, changing to 3+3 design after the first grade-2 toxicity was seen. […] DLT definitions are in the Supplemental Methods.
For part B, all patients received the RP2D as defined for part A. Part B allowed for different schedules (continuous/intermittent) to be assessed. Initially, a continuous dosing schedule was used for the first 6 patients. […] Pretreatment biopsy was mandatory in part B. DNA-Seq of archival tumor material or review of external tumor sequencing was used to enrich for patients with putative genomic markers of sensitivity to ATRi, based on preclinical data, including oncogene amplification or driver mutation, ATM/G1 pathway defects (alteration in ATM, CHK2, or other components of the pathway causing G1 cell-cycle arrest after DNA damage), SWI/SNF (switch/sucrose nonfermentable, a chromatin-remodeling complex) pathway defect, genomic instability/homologous recombination deficit (HRD), or defect in a gene synthetically lethal with ATRi in published data ([46], [47]) (Figure 1B and Supplemental Table 3).
Patients were assessed weekly during cycle 1 and twice weekly thereafter, with safety assessments including blood hematology and biochemistry, physical examination, and toxicity scoring.

[2] = system: peripheral blood immune cells; test: Flow cytometry immune profiling of peripheral blood; format: in vivo, human
Protocol: DNA-Seq of tumor and matched buffy coats was either by whole-exome sequencing or a custom-designed panel targeting all exons of genes of interest for 173 genes, including potential markers of sensitivity to ATRi. ACK-lysed whole blood or PBMCs were stained for flow cytometry using 8 multicolor panels. Plasma cytokines were assessed using the Bio-Plex Pro 27-Plex Panel (Bio-Rad). See Supplemental Methods for full information. […]
Peripheral blood was drawn into 8 mL EDTA tubes (Vacutainer, BD) and analyzed within 24
hours. ACK-lysed whole blood (for myeloid panel) or PBMC from density gradient centrifugation
(for lymphocyte panel) were used. Samples were surface-stained with antibodies for 30 mins at
4 OC. Samples were analyzed on a LSR Fortessa (BD Biosciences). FACS analyses were
CD56 PE-Dazzle 594 Biolegend
CD62L PerCp Cy5.5 Biolegend
NKp30 PerCp Cy5.5 Biolegend
TIGIT PerCp Cy5.5 eBioscience
CD45RO Pacific Blue Biolegend
CTLA-4 PE-Dazzle 594 Biolegend
CD57 PerCp Cy5.5 Biolegend
CD38 PE-Dazzle 594 Biolegend
CD11b ICRF44 PE Biolegend
HLA-DR L243 PerCP Cy5.5 Biolegend
CD16 3G8 APC-C7 Biolegend

advanced solid tumors = test: Antitumor response by RECIST 1.1 and duration on study; format: in vivo, human; conditions: for Patients with PR: 40 mg BD or more
[3] = 160 mg BD intermittent schedule

C[C@@H]1COCCN1c1cc(C2([S@](C)(=N)=O)CC2)nc(-c2cc[nH]c3nccc2-3)n1 [ceralasertib]
CIBERSORTx proportion CD8, on-treatment tumor biopsy (tumor biopsies; D15 PR): 0
CIBERSORTx proportion M0 Mac, on-treatment tumor biopsy (tumor biopsies; D15 PR): 0.1391 and 0.5318 and 0.5438
CIBERSORTx proportion M1 Mac, on-treatment tumor biopsy (tumor biopsies; D15 PR): 0.1372 and 0 (2×)
CIBERSORTx proportion M2 Mac, on-treatment tumor biopsy (tumor biopsies; D15 PR): 0.1138 and 0.03909 and 0.06393
CIBERSORTx proportion Naive B, on-treatment tumor biopsy (tumor biopsies; D15 PR): 0.01104 and 0.04034 and 0
CIBERSORTx proportion Naive CD4, on-treatment tumor biopsy (tumor biopsies; D15 PR): 0 and 0.0004844 and 0.004743
CIBERSORTx proportion Neutrophils, on-treatment tumor biopsy (tumor biopsies; D15 PR): 0.03549 and 0.1415 and 0.09333
CIBERSORTx proportion Treg, on-treatment tumor biopsy (tumor biopsies; D15 PR): 0
CIBERSORTx proportion active DC, on-treatment tumor biopsy (tumor biopsies; D15 PR): 0.02084 and 0.01306 and 0.1026
CIBERSORTx proportion active NK, on-treatment tumor biopsy (tumor biopsies; D15 PR): 0.09471 and 0 (2×)
CIBERSORTx proportion resting DC, on-treatment tumor biopsy (tumor biopsies; D15 PR): 0
CIBERSORTx proportion resting NK, on-treatment tumor biopsy (tumor biopsies; D15 PR): 0 and 0.07254 and 0.04433
CIBERSORTx proportion CD8, on-treatment tumor biopsy (tumor biopsies; D15 non-PR): 0 (3×) and 0.09128
CIBERSORTx proportion M0 Mac, on-treatment tumor biopsy (tumor biopsies; D15 non-PR): 0.07738 and 0.2479 and 0.5291 and 0.2524
CIBERSORTx proportion M1 Mac, on-treatment tumor biopsy (tumor biopsies; D15 non-PR): 0 (2×) and 0.002883 and 0.04168
CIBERSORTx proportion M2 Mac, on-treatment tumor biopsy (tumor biopsies; D15 non-PR): 0.325 and 0.00838 and 0.1257 and 0.0276
CIBERSORTx proportion Naive B, on-treatment tumor biopsy (tumor biopsies; D15 non-PR): 0 (2×) and 0.07794 and 0.002559
CIBERSORTx proportion Naive CD4, on-treatment tumor biopsy (tumor biopsies; D15 non-PR): 0
CIBERSORTx proportion Neutrophils, on-treatment tumor biopsy (tumor biopsies; D15 non-PR): 0 (2×) and 0.09632 and 0.04836
CIBERSORTx proportion Treg, on-treatment tumor biopsy (tumor biopsies; D15 non-PR): 0 (2×) and 0.01681 and 0.03886
CIBERSORTx proportion active DC, on-treatment tumor biopsy (tumor biopsies; D15 non-PR): 0.01626 and 0.04266 and 0 (2×)
CIBERSORTx proportion active NK, on-treatment tumor biopsy (tumor biopsies; D15 non-PR): 0.08744 and 0 (2×) and 0.005269
CIBERSORTx proportion resting DC, on-treatment tumor biopsy (tumor biopsies; D15 non-PR): 0 (3×) and 0.002776
CIBERSORTx proportion resting NK, on-treatment tumor biopsy (tumor biopsies; D15 non-PR): 0 and 0.1019 and 0.06313 and 0.04038
TRAE Overall events: n (%) ([1]; 40 mg BD, G1–2): 7 (100)
TRAE Overall events: n (%) ([1]; 40 mg BD, G3): 0
TRAE Overall events: n ([1]; 40 mg BD): 7
TRAE Overall events: n (%) ([1]; 80 mg BD, G1–2): 18 (78)
TRAE Overall events: n (%) ([1]; 80 mg BD, G3): 5 (22)
TRAE Overall events: n ([1]; 80 mg BD): 23
Tolerability of intermittent versus continuous schedule ([1]; 160 mg BD): better tolerated
Incidence of G3 leukopenia ([1]; 160 mg BD continuous schedule): 8%
Incidence of G3 or greater anemia ([1]; 160 mg BD continuous schedule): 33%
TRAE Overall events: n (%) ([1]; 160 mg BD continuous, G1–2): 44 (90)
TRAE Overall events: n (%) ([1]; 160 mg BD continuous, G3): 5 (10)
TRAE Overall events: n ([1]; 160 mg BD continuous): 49
Incidence of G3 leukopenia [1, 3]: 0%
Incidence of G3 or greater anemia [1, 3]: 9%
TRAE Overall events: n (%) ([1]; 160 mg BD intermittent, G1–2): 100 (89)
TRAE Overall events: n (%) ([1]; 160 mg BD intermittent, G3): 11 (10)
TRAE Overall events: n (%) ([1]; 160 mg BD intermittent, G4): 1 (1)
TRAE Overall events: n ([1]; 160 mg BD intermittent): 112
TRAE Overall events: n (%) ([1]; 240 mg BD, G1–2): 26 (77)
TRAE Overall events: n (%) ([1]; 240 mg BD, G3): 8 (24)
TRAE Overall events: n (%) ([1]; 240 mg BD, G4): 7 (21)
Related SAE ([1]; 20 and 40 mg dose levels): N o related SAE
Treatment-related deaths ([1]; all 67 treated patients): no treatment-related deaths
Patients requiring dose reduction or interruption for toxicity ([1]; continuous schedule (incl. part A), 6 of 12): 50%
Patients withdrawn due to toxicity ([1]; dose-escalation phase): Four
Patients withdrawn due to toxicity ([1]; dose-expansion phase): 1
Patients requiring dose reduction or interruption for toxicity ([1]; intermittent schedule, 10 of 35): 29%
CD8+ T cells in peripheral blood ([2]; 160 mg BD intermittent): trend toward increased
Classical and intermediate monocytes ([2]; 160 mg BD intermittent): reduction
Granulocytic MDSCs (gMDSC) ([2]; 160 mg BD intermittent): increased
Monocytic MDSCs (mMDSCs) ([2]; 160 mg BD intermittent): reduced
Naive and central memory CD8+ and CD4+ T cells ([2]; 160 mg BD intermittent): increased
PD-1–positive CD8+ T cells ([2]; 160 mg BD intermittent): reduction
Tregs in peripheral blood ([2]; 160 mg BD intermittent, 8 participants): reduction
Memory CD4-TEMRA cells ([2]; day 29): increased frequencies
NKG2A- and CD69-positive NK cells ([2]; normalized after the 2-week break): trend toward increased
Patients with PR (advanced solid tumors; mutation of interest, 4 of 30): 13%
Patients with PR (advanced solid tumors; no mutation of interest, 1 of 11): 9%
Progressive disease, n (%) (advanced solid tumors; 160 mg BD or more, n = 49): 15 (30%)
Median duration on treatment (advanced solid tumors; 4 ATM-low patients, range 8–29): 13 weeks
Patients deriving clinical benefit (advanced solid tumors; 11 patients with oncogene-driven tumors): 3
Best overall response: progressive disease incl. clinical progression, n (%) (advanced solid tumors; 66 evaluable patients): 27 (41%)
Best overall response: stable disease incl. 1 unconfirmed PR, n (%) (advanced solid tumors; 66 evaluable patients): 34 (52%)
Best overall response: confirmed partial responses, n (%) (advanced solid tumors; 66 evaluable patients, 20–240 mg BD): 5 (8%)
Duration (advanced solid tumors; ARID1A E1387X, lobular breast carcinoma): 42 days
Duration (advanced solid tumors; ARID1A Q1188X, ovarian clear cell): 275 days
Duration (advanced solid tumors; ARID1A R693*, eccrine adenocarcinoma): 240 days
Duration (advanced solid tumors; ARID1A S1623L, cervix adenocarcinoma): 203 days
Duration (advanced solid tumors; ARID2 Y854fs, SCCHN): 697 days
Tumor shrinkage (advanced solid tumors; ARID2 frameshift-bearing HNSCC): 29%
Patients experiencing SD (advanced solid tumors; ATM-low patients): 3 of 4
Best response (advanced solid tumors; CCNE1 amplification, peritoneal carcinoma, 20 mg BD): progressive disease
Duration on study with SD (advanced solid tumors; CCNE1 amplification, serous endometrial carcinoma): 12 weeks
Duration of RECIST SD / on study (advanced solid tumors; HNSCC with ARID2 frameshift): 99 weeks
Duration of RECIST SD (advanced solid tumors; HNSCC with CCND1 amplification): 49 weeks
Duration on study (advanced solid tumors; HNSCC, MRE11 and CDKN2A mutation): 1,194 days
Duration on study (advanced solid tumors; HNSCC, RECIST PR, 40 mg BD): 106 days
Duration of RECIST SD (advanced solid tumors; HNSCC, no sequencing available): 48 weeks
Duration on study with confirmed PR (advanced solid tumors; MRE11 stop-gain R633X with CDKN2A stop-gain): more than 32 months
Duration (advanced solid tumors; PBRM S295*, SCCHN): 112 days
Median duration of response (advanced solid tumors; PR or SD, with a mutation of interest): 185.5 days
Median duration of response (advanced solid tumors; PR or SD, without a mutation of interest): 105 days
Duration of response (advanced solid tumors; PR, HNSCC with APC frameshift and TP53 mutation, 40 mg BD): 15 weeks
Duration of response (advanced solid tumors; PR, HNSCC with CDKN2A and MRE11A frameshift, 160 mg BD, remains on study): 170 weeks
Duration of response (advanced solid tumors; PR, esophageal squamous cell carcinoma, HR/Fanconi deficiency, 160 mg BD): 47 weeks
Duration of response (advanced solid tumors; PR, nasopharyngeal carcinoma, NRAS activating mutation, 240 mg BD): 14 weeks
Duration of response (advanced solid tumors; PR, ovarian clear cell carcinoma, ARID1A mutation, 160 mg BD, remains on study): 251 weeks
Median duration of response (advanced solid tumors; RECIST PR patients, IQR 14.9–251.0): 46.7 weeks
Duration of RECIST SD (advanced solid tumors; digital papillary adenocarcinoma with TP53 mutation): 51 weeks
Duration of SD (advanced solid tumors; eccrine adenocarcinoma, ARID1A R693X, CDKN2A deletion, 240 mg BD): 34 weeks
Duration on study (advanced solid tumors; esophageal squamous cell carcinoma, RECIST PR, 160 mg BD intermittent): 575 days
Duration of SD (advanced solid tumors; increased cyclin E1 by IHC, cervical adenocarcinoma): 29 weeks
Duration of SD (advanced solid tumors; increased cyclin E1 by IHC, serous endometrial carcinoma, germline BRCA1 mutation): 16 weeks
Duration on study (advanced solid tumors; nasopharyngeal carcinoma, NRAS activation, RECIST PR, 240 mg BD): 341 days
Duration on study (advanced solid tumors; pancreatic adenocarcinoma, unconfirmed PR, 160 mg BD intermittent): 480 days
Duration on study with SD (advanced solid tumors; pathogenic ATM mutation R1898fsX with coexisting ARID1A mutation): 39 weeks
Participants deriving clinical benefit (advanced solid tumors; seven participants with SWI/SNF pathway aberrations): 6
Duration of response (advanced solid tumors; unconfirmed PR, TP53 mutant pancreatic adenocarcinoma, 160 mg BD): 15 weeks
